Key:
[1] = biological target: T1, Androgen receptor (Homo sapiens, UniProt P10275); experiment: Antagonist activity against human androgen receptor expressed in human LNCap cells trasfected with ARR2PB-eGFP cells incubated for 3 days by fluorescence based AR transcription assay; type: cell-based
T1 sequence (P10275 whole entry): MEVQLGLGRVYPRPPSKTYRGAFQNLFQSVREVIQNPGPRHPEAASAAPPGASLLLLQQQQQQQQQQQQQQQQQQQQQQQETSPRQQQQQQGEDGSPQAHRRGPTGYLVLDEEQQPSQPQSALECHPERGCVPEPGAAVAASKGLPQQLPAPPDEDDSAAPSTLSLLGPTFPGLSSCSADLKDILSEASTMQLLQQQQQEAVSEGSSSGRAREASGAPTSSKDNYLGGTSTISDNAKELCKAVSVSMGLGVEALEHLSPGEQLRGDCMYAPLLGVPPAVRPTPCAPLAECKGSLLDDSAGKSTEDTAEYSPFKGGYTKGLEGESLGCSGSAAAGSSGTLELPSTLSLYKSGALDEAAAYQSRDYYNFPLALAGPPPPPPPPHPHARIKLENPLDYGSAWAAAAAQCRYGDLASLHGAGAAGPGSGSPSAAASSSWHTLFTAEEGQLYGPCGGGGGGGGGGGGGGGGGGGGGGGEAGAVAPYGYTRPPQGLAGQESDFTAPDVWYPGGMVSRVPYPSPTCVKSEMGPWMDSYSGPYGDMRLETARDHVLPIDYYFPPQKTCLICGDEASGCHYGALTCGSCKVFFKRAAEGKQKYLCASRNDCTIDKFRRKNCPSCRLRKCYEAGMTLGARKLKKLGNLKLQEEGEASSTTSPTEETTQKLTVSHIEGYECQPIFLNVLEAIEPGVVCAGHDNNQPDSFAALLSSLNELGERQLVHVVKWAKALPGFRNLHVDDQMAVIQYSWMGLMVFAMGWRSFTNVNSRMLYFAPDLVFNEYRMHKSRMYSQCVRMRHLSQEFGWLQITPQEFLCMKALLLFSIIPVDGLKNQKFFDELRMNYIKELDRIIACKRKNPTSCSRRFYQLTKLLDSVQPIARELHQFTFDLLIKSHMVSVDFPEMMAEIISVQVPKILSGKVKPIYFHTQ

[2] = tested on: NIH3T3; experiment: Cytotoxicity against mouse NIH3T3 cells assessed as reduction in cell viability at 100 uM incubated for 4 hrs by MTT assay; type: toxicity, cell-based; conditions: nih3t3, 4 h
[3] = Inhibition of prostate specific antigen expression in human LNCaP cells expressing ARR2PB-eGFP by immunoassay
[4] = Toxicity in CB17 SCID mouse xenografted with human LNCaP cells assessed as decrease in body weight at 2.5 mg/kg,IT(Intratumoral) administered once in every week for 25 days […]; type: organism-based; conditions: in vivo, other, 600 h, time 25 day
[5] = Volume of distribution in CB17-SCID mouse mouse at 50 mg/kg, iv; type: ADME, organism-based; conditions: in vivo
[6] = Clearance in CB17-SCID mouse mouse at 50 mg/kg, iv; type: ADME, organism-based; conditions: in vivo
[7] = Half life in CB17-SCID mouse mouse at 50 mg/kg, iv; type: ADME, organism-based; conditions: in vivo
[8] = Cmax in CB17-SCID mouse mouse at 50 mg/kg, iv; type: ADME, organism-based; design: route intravenous, dose 50 mg/kg; conditions: in vivo

Row | Compound | IC50 [1] [µM] | further results
1 | O=S(=O)(Cc1ccccc1)Nc1ccc(OCc2ccccc2)cc1 | – | Activity [2]: Non-Toxic
2 | O=S(=O)(Nc1ccc(OCc2ccccc2)cc1)c1ccccc1 | – | Activity [2]: Toxic
3 | CNC(=O)c1ccc(N2C(=S)N(c3ccc(C#N)c(C(F)(F)F)c3)C(=O)C2(C)C)cc1F [ENZALUTAMIDE] | – | IC50 [3]: 0.1 µM; Activity [4]: Toxic
4 | CN(C)S(=O)(=O)Nc1ccc(OCc2ccccc2)cc1 | – | Vd [5]: 2.99 L/kg; clearance [6]: 366 mL/min/kg; Activity [2]: Non-Toxic; half-life [7]: 1.52 h; Cmax [8]: 890 ng/mL; Activity [4]: Toxic
5 | COC(=O)c1sccc1S(=O)(=O)Nc1ccc(OCc2ccccc2)cc1 | > 50 | –
6 | CC1NC(=O)NC(=O)C1S(=O)(=O)Nc1ccc(OCc2ccccc2)cc1 (stereo not drawn) | > 50 | –
7 | COc1ccc(CS(=O)(=O)Nc2ccc(OCc3ccccc3)cc2)cc1 | > 50 | –

Now from value to compound, other results behind:

Row | IC50 [1] [µM] | Compound | further results
8 | > 50 | CC(=O)N1c2cc(S(=O)(=O)Nc3ccc(OCc4ccccc4)cc3)c(Br)cc2CC1C (stereo not drawn) | –
9 | > 50 | CC(=O)c1ccc(S(=O)(=O)Nc2ccc(OCc3ccccc3)cc2)cc1 | –
10 | > 50 | Cc1cc(C)c(S(=O)(=O)Nc2ccc(OCc3ccccc3)cc2)c(C)c1 | –
11 | > 50 | CC(C)CS(=O)(=O)Nc1ccc(OCc2ccccc2)cc1 | –
12 | > 50 | Cn1c(=O)n(C)c2cc(S(=O)(=O)Nc3ccc(OCc4ccccc4)cc3)ccc21 | –
13 | > 50 | O=[N+]([O-])c1ccc(CS(=O)(=O)Nc2ccc(OCc3ccccc3)cc2)cc1 | –
14 | > 50 | O=S(=O)(Cc1ccc(Cl)cc1)Nc1ccc(OCc2ccccc2)cc1 | –
15 | 11.5 | Cc1ccc(S(=O)(=O)Nc2ccc(OCc3ccccc3)cc2)cc1 | –
16 | > 50 | CC(=O)Nc1ccc(S(=O)(=O)Nc2ccc(OCc3ccccc3)cc2)cc1 | –
17 | > 50 | CCOC(=O)c1cn[nH]c1S(=O)(=O)Nc1ccc(OCc2ccccc2)cc1 | –
